Test [1] has as its system cells. The experiment in a line: Cell Titer Blue % cell viable (24 hrs). In kind it is cell-based. As to conditions: 24 h. As to the method: The viability of cells upon treatment was assessed by CellTiter-Blue® reagent following the manufacturer's protocol in RKO, UM10B, UM1, MCR5, and UMCC92 cells. Briefly, 10,000 cells were plated in 96-well plate in quadruplets. One day after seeding, cells were treated with a range of concentrations (0.1 to 30 micromolar). […] Only the viable cells convert the redox dye (reszurin) into a fluorescent product (resofurin). The emission of fluorescence (excitation 560 nm) was measured at […]. The IC50 value was calculated as the mean concentration of compounds required to inhibit cell proliferation as measured by the fluorescence at […] by 50 percent compared to the vehicle-treated controls.
Background: Alamar Blue is a resazurin reagent that responds to reducing activity.

Test [2] has as its system UMCC92 cells. Nature of the test: Clonogenic IC50, UMCC92. It counts as cell-based.
The subject of test [3] is RKO cells. Nature of the test: Clonogenic IC50, RKO. The following applies: Homo sapiens. It counts as cell-based.
Test [4] has as its system UM1 cells. Nature of the test: Clonogenic IC50, UM1. In kind it is cell-based.
For test [5], the system named is MCR5 cells. Nature of the test: Clonogenic IC50, MCR5. It counts as cell-based. The following applies: MCR5, MCR5. As for the experimental part: It was determined if the response to Compound 8C correlates with inhibition of EGF-induced dimerization and degradation of EGFR. For this, PC9-AZR cells were treated for 1 hour with 1 μM Compound 8C and an additional 30 minutes with EGF (30 ng/ml) and 30 minutes with disuccinimidyl suberate (DSS, 150 μM) to cross-link interacting proteins. Lysates were prepared and immunoblotted with anti-EGFR antibodies.
The viability of cells upon treatment was assessed by CellTiter-Blue® reagent following the manufacturer's protocol in RKO, UM10B, UM1, MCR5, and UMCC92 cells. Briefly, 10,000 cells were plated in 96-well plate in quadruplets. One day after seeding, cells were treated with a range of concentrations (0.1 to 30 micromolar). 3-days post-treatment, cells were incubated with the CellTiter-Blue® reagent for 4 hr. Only the viable cells convert the redox dye (reszurin) into a fluorescent product (resofurin). The emission of fluorescence (excitation 560 nm) was measured at […]. The IC50 value was calculated as the mean concentration of compounds required to inhibit cell proliferation as measured by the fluorescence at […] by 50 percent compared to the vehicle-treated controls.

The subject of test [6] is UM10B cells. The experiment in a line: Clonogenic IC50, UM10B. It counts as cell-based.
For test [7], the system named is Ba/F3-AZR cells (L858R+T790M+C797S-EGFR). Nature of the test: Osimertinib resistant Ba/F3-AZR ascites tumor model. In kind it is in vivo, nude mice. As to conditions: mouse, in vivo, 30 mg/kg.

What is called viability is a read-out of living cells in per cent, often relative to untreated cells. As a reminder, the IC50 is the concentration at which inhibition is half-maximal.

For `COc1ccc(C2=NC3(CCN(C)CC3)N(CC(=O)Nc3ccc(OC)c(Cl)c3)C2=O)cc1` [Compound 5, N-(3-chloro-4-methoxyphenyl)-2-(3-(4-methoxyphenyl)-8-methyl-2-oxo-1,4,8-triazaspiro[4.5]dec-3-en-1-yl)acetamide], the viability at 15 µM in test [1] (Conc 15 μM) was found to be 60%. Further, the IC50 in test [2] came out at 34 µM; in test [3], 11.6 µM; in test [4] it was 0.9 µM.
Take `Cc1ccc(C2=NC3(CCN(C)CC3)N=C2SCC(=O)Nc2ccc(F)c(F)c2)cc1` [Compound 25]: in test [1] (Conc 30 μM), the viability at 30 µM is 78%. The IC50 in test [2] came to 2.1 µM; in test [5] it was 69.3 µM; in test [6], 2.6 µM; in test [3] it was 3.7 µM.
For `C=CC(=O)Nc1cc(Nc2nccc(-c3cn(C)c4ccccc34)n2)c(OC)cc1N(C)CCN(C)C` [osimertinib, reference compound], the survival result in test [7] is on record as “no difference”.

(Values after patent publication US11358965B2, “EGFR dimer disruptors and use of the same” (THE REGENTS OF THE UNIVERSITY OF MICHIGAN, priority 2018, dated 2022).)
